# Measured values: patent publication US9481676B2, “Azepino[4,5-B]indoles and methods of use” (Medivation Technologies, Inc., priority 2008, dated 2016)
# Experiments:
# [1] = target: T1, human recombinant histamine H1 receptor (Homo sapiens, UniProt P35367); test: Histamine H1 radioligand binding ([3H]Pyrilamine); conditions: compound at 1 μM; read-out: Histamine Binding (1 μM) H1, percent inhibition of specific binding
# T1 construct: expressed in transfected cells; host or cells: CHO cells
# Outline: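 Membranes from CHO cells expressing the receptor were incubated with compound and 1.2 nM [3H]pyrilamine for 180 min at 25 °C in 50 mM Tris-HCl pH 7.4 with MgCl2, NaCl and sucrose; 1 μM pyrilamine defined non-specific binding. Filter-bound radioactivity was counted.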
# [2] = target: T2, human recombinant histamine H2 receptor (Homo sapiens, UniProt P25021); test: Histamine H2 radioligand binding ([125I]Aminopotentidine); conditions: compound at 1 μM; read-out: Histamine Binding (1 μM) H2, percent inhibition of specific binding
# T2 construct: expressed in transfected cells; host or cells: CHO-K1 cells
# T2 sequence (P25021 whole entry): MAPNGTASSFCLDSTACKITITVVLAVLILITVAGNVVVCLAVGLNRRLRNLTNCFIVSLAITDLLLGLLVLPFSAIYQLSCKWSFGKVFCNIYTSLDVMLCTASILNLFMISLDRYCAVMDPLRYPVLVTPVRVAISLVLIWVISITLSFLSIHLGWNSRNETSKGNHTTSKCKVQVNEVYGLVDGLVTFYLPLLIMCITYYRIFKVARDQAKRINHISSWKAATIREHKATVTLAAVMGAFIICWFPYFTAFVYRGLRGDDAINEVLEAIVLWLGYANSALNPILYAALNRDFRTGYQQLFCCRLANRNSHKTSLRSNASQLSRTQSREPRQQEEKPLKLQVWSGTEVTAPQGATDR
# Outline: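 Membranes from CHO-K1 cells expressing recombinant human H2 receptor, in 50 mM phosphate buffer pH 7.4, incubated with 0.1 nM [125I]aminopotentidine for 120 min at 25 °C; nonspecific binding defined with 3 μM tiotidine.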
# [3] = target: T3, human recombinant adrenergic α2A receptor (Homo sapiens, UniProt P08913); test: Adrenergic alpha2A radioligand binding ([3H]MK-912); conditions: compound at 1 μM; read-out: Adrenergic (1 μM) α2A, percent inhibition of specific binding
# T3 construct: expressed in transfected cells; host or cells: insect Sf9 cells
# T3 sequence (P08913 1-465): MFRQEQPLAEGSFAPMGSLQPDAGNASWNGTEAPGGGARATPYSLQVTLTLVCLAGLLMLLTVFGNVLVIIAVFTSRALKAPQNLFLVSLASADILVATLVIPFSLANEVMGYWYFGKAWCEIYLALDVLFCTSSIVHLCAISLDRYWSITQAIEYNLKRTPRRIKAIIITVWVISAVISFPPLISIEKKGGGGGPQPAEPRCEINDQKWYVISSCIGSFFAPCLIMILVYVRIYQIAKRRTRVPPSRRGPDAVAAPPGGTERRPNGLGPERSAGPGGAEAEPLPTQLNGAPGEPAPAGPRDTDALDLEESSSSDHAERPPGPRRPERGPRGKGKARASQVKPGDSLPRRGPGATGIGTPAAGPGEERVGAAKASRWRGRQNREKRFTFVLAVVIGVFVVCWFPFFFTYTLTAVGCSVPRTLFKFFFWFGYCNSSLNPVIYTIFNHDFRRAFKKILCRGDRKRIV
# Outline: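 Membranes of Sf9 cells expressing human recombinant α2A receptor were incubated with compound and 1 nM [3H]MK-912 for 60 min at 25 °C in 50 mM Tris-HCl pH 7.4, 12.5 mM MgCl2, 2 mM EDTA. Nonspecific binding: 10 μM WB-4101.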
# [4] = target: T4, human recombinant serotonin (5-Hydroxytryptamine) 5-HT6 receptor (Homo sapiens, UniProt P50406); test: Serotonin 5-HT6 radioligand binding ([3H]LSD); conditions: compound at 1 μM; read-out: Serotonin (1 μM) 5-HT6, percent inhibition of specific binding
# T4 construct: expressed in transfected cells; host or cells: human HeLa cells
# T4 sequence (P50406 whole entry): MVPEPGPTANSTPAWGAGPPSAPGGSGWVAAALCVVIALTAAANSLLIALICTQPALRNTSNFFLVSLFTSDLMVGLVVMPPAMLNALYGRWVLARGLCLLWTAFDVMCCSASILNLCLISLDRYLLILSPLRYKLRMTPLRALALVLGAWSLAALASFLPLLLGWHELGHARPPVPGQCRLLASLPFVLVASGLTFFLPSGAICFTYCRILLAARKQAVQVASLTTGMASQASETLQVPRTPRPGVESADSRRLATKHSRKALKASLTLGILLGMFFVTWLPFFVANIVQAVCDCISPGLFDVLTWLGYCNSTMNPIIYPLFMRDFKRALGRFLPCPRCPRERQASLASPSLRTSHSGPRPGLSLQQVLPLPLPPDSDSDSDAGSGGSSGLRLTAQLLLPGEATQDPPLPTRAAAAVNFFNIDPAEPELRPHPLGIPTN
# Outline: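 Human recombinant 5-HT6 receptor from HeLa cells incubated with 1.5 nM [3H]LSD for 120 min at 37° C in 50 mM Tris-HCl pH 7.4, 150 mM NaCl, 2 mM ascorbic acid, 0.001% BSA. Nonspecific binding defined with 5 μM serotonin; bound ligand counted after filtration.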
# T1 sequence (P35367 whole entry): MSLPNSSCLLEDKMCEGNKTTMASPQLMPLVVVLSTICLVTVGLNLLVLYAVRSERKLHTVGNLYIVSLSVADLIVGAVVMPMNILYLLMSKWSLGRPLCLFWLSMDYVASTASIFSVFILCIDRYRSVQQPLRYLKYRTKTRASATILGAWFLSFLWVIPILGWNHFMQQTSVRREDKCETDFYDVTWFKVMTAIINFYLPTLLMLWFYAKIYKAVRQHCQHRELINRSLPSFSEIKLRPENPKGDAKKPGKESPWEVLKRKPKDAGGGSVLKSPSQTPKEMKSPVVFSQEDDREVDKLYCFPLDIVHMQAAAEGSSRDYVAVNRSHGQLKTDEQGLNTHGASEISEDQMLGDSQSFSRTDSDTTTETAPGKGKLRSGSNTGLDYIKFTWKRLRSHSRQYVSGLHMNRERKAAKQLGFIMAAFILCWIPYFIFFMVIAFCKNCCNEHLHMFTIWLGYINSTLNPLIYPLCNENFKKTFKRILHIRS
SMILES,inhibition at 1 µM [1],inhibition at 1 µM [2],inhibition at 1 µM [3],inhibition at 1 µM [4]
"CN1CCc2c(n(CCc3ccc(C(F)(F)F)nc3)c3ccc(Cl)cc23)CC1 [Compound No. 1, 9-chloro-6-(2-(6-(trifluoromethyl)pyridin-3-yl)ethyl)-1,2,3,4,5,6-hexahydro-3-methylazepino[4,5-b]indole]",96%,58%,90%,86%
"C/C(=C\n1c2c(c3cc(Cl)ccc31)CCN(C)CC2)c1ccc(F)cc1 [Compound No. 2, 9-chloro-6-((E)-2-(4-fluorophenyl)prop-1-enyl)-1,2,3,4,5,6-hexahydro-3-methylazepino[4,5-b]indole]",93%,105%,96%,103%
"Cc1cncc(CCn2c3c(c4cc(Cl)ccc42)CCN(C)CC3)c1 [Compound No. 3, 9-chloro-3-methyl-6-(2-(5-methylpyridin-3-yl)ethyl)-1,2,3,4,5,6-hexahydroazepino[4,5-b]indole]",102%,82%,91%,92%
"CC1CCN(C(=O)Cn2c3c(c4cc(Cl)ccc42)CCN(C)CC3)CC1 [Compound No. 76, 2-(9-chloro-2,3,4,5-tetrahydro-3-methylazepino[4,5-b]indol-6(1H)-yl)-1-(4-methylpiperidin-1-yl)ethanone]",95%,19%,7%,39%
"COc1ccc(C(O)Cn2c3c(c4cc(Cl)ccc42)CCN(C)CC3)cc1OC (stereo not drawn) [Compound No. 77, 2-(9-chloro-2,3,4,5-tetrahydro-3-methylazepino[4,5-b]indol-6(1H)-yl)-1-(3,4-dimethoxyphenyl)ethanol]",97%,37%,85%,33%
"COc1ccc(/C=C/n2c3c(c4cc(Cl)ccc42)CCN(C)CC3)cc1 [Compound No. 78, 6-(4-methoxystyryl)-9-chloro-1,2,3,4,5,6-hexahydro-3-methylazepino[4,5-b]indole]",100%,91%,83%,91%
"Cc1ccc2c(c1)c1c(n2CC(=O)Nc2ccccc2)CCN(C)CC1 [Compound No. 79, 2-(2,3,4,5-tetrahydro-3,9-dimethylazepino[4,5-b]indol-6(1H)-yl)-N-phenylacetamide]",6%,0%,17%,-7%
"C=C(Cn1c2c(c3cc(Cl)ccc31)CCN(C)CC2)c1ccc(F)cc1 [Compound No. 82, 9-chloro-6-(2-(4-fluorophenyl)allyl)-3-methyl-1,2,3,4,5,6-hexahydroazepino[4,5-b]indole]",103%,95%,96%,104%
"CN1CCc2c(n(/C=C/c3ccccc3F)c3ccc(Cl)cc23)CC1 [Compound No. 83, (E)-9-chloro-6-(2-fluorostyryl)-3-methyl-1,2,3,4,5,6-hexahydro azepino[4,5-b]indole]",97%,98%,99%,103%
"C/C(=C/n1c2c(c3cc(Cl)ccc31)CCN(C)CC2)c1ccc(Cl)cc1Cl [Compound No. 152, (Z)-9-chloro-6-(2-(2,4-dichlorophenyl)prop-1-enyl)-1,2,3,4,5,6-hexahydro-3-methylazepino[4,5-b]indole]",91%,86%,93%,73%
"COc1ccc(/C=C/n2c3c(c4cc(Cl)ccc42)CCN(C)CC3)cc1F [Compound No. 158, (E)-6-(3-fluoro-4-methoxystyryl)-9-chloro-1,2,3,4,5,6-hexahydro-3-methylazepino[4,5-b]indole]",98%,89%,99%,93%
"C/C(=C/n1c2c(c3cc(C)ccc31)CCN(C)CC2)c1ccc(Cl)cc1Cl [Compound No. 174, (Z)-6-(2-(2,4-dichlorophenyl)prop-1-enyl)-1,2,3,4,5,6-hexahydro-3,9-dimethylazepino[4,5-b]indole]",98%,99%,101%,100%
"COc1ccc(/C=C/n2c3c(c4cc(C)ccc42)CCN(C)CC3)cc1F [Compound No. 180, (E)-6-(3-fluoro-4-methoxystyryl)-1,2,3,4,5,6-hexahydro-3,9-dimethylazepino[4,5-b]indole]",97%,77%,99%,95%
"Cc1ccc2c(c1)c1c(n2CC(=O)N2CCNCC2)CCN(C)CC1 [Compound No. 224, 2-(3,9-dimethyl-2,3,4,5-tetrahydroazepino[4,5-b]indol-6(1H)-yl)-1-(piperazin-1-yl)ethanone]",33%,-4%,8%,-4%
"Cc1ccc2c(c1)c1c(n2CC(=O)N2CCC(C)CC2)CCN(C)CC1 [Compound No. 225, 2-(3,9-dimethyl-2,3,4,5-tetrahydroazepino[4,5-b]indol-6(1H)-yl)-1-(4-methylpiperidin-1-yl)ethanone]",95%,6%,0%,16%
"COc1ccc(/C=C/n2c3c(c4cc(Cl)ccc42)CCN(C)CC3)cc1OC [Compound No. 226, (E)-9-chloro-6-(3,4-dimethoxystyryl)-3-methyl-1,2,3,4,5,6-hexahydroazepino[4,5-b]indole]",99%,39%,93%,36%
"COc1ccc(C(O)Cn2c3c(c4cc(C)ccc42)CCN(C)CC3)cc1OC (stereo not drawn) [Compound No. 227, 1-(3,4-dimethoxyphenyl)-2-(3,9-dimethyl-2,3,4,5-tetrahydroazepino[4,5-b]indol-6(1H)-yl)ethanol]",95%,19%,70%,30%
"CN1CCc2c(n(/C=C/c3ccccc3)c3ccc(Cl)cc23)CC1 [Compound No. 228, (E)-9-chloro-3-methyl-6-styryl-1,2,3,4,5,6-hexahydroazepino[4,5-b]indole]",99%,97%,102%,104%
